According to patent USRE39591E1, “6-O-substituted ketolides having antibacterial activity” (Abbott Laboratories, priority 1996, dated 2007):
In brackets after ≈: the same amount, converted by molar mass.

System: up to 32 different microorganisms
Experiment: in vitro antibacterial activity (MIC), agar dilution on Brain Heart Infusion (BHI) agar with Steers replicator
Type: cell-based
Conditions: unit assumed
How it was run: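 Agar dilution, 12 plates/compound; inoc 1:100 (1:10 Micrococcus, Streptococcus); 35°-37° C, 20–24 h. Erythromycin A reference plate plus drug-free growth controls at start and end. Endpoint = no growth/slight haze/sparse colonies.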

Row | Compound | MIC (organism code AA) [µg/mL] | MIC (organism code BB) [µg/mL] | MIC (organism code CC) [µg/mL] | MIC (organism code DD) [µg/mL] | MIC (organism code FF) [µg/mL] | MIC (organism code GG) [µg/mL] | MIC (organism code HH) [µg/mL] | MIC (organism code II) [µg/mL] | MIC (organism code JJ) [µg/mL] | MIC (organism code KK) [µg/mL] | MIC (organism code LL) [µg/mL] | MIC (organism code MM) [µg/mL] | MIC (organism code NN) [µg/mL] | MIC (organism code OO) [µg/mL] | MIC (organism code PP) [µg/mL] | MIC (organism code QQ) [µg/mL] | MIC (organism code RR) [µg/mL] | MIC (organism code SS) [µg/mL] | MIC (organism code TT) [µg/mL] | MIC (organism code UU) [µg/mL] | other results
1 | CCC1OC(=O)C(C)C(=O)C(C)C(OC2OC(C)CC(N(C)C)C2O)C(C)(OCC=Cc2cnc3ccc(F)cc3c2)CC(C)C(=O)C(C)C2NC(=O)OC12C (stereo not shown) [Example 215, R is —CH2CH═CH-(6-fluoro-3-quinolyl)] | 0.05 (≈ 0.0638 µM) | 0.1 (≈ 0.128 µM) | > 100 | 0.1 (≈ 0.128 µM) | 0.1 (≈ 0.128 µM) | > 100 | 0.1 (≈ 0.128 µM) | 0.05 (≈ 0.0638 µM) | 0.01 (≈ 0.0128 µM) | 0.01 (≈ 0.0128 µM) | 0.01 (≈ 0.0128 µM) | 0.78 (≈ 0.995 µM) | 0.1 (≈ 0.128 µM) | 0.01 (≈ 0.0128 µM) | 0.2 (≈ 0.255 µM) | 25 (≈ 31.9 µM) | 0.2 (≈ 0.255 µM) | > 100 | > 100 | 0.78 (≈ 0.995 µM) | MIC (organism code EE): 0.1 µg/mL (≈ 0.128 µM); MIC (organism code VV): 0.02 µg/mL (≈ 0.0255 µM); MIC (organism code WW): 2 µg/mL (≈ 2.55 µM); MIC (organism code XX): 0.015 µg/mL (≈ 0.0191 µM); MIC (organism code YY): ≤ 0.004 µg/mL; MIC (organism code ZZ): 16 µg/mL (≈ 20.4 µM); MIC (organism code ZZA): 0.25 µg/mL (≈ 0.319 µM)
2 | CCC1OC(=O)C(C)C(=O)C(C)C(OC2OC(C)CC(N(C)C)C2O)C(C)(OCC=Cc2cnc3ccc(C(=O)OC)cc3c2)CC(C)C(=O)C(C)C2NC(=O)OC12C (stereo not shown) [Example 216, R is —CH2CH═CH-(6-methoxycarbonyl-3-quinolyl)] | 0.2 (≈ 0.243 µM) | 0.2 (≈ 0.243 µM) | > 100 | 0.2 (≈ 0.243 µM) | 0.2 (≈ 0.243 µM) | > 100 | 0.2 (≈ 0.243 µM) | 0.05 (≈ 0.0607 µM) | 0.01 (≈ 0.0121 µM) | 0.02 (≈ 0.0243 µM) | 0.02 (≈ 0.0243 µM) | 0.78 (≈ 0.947 µM) | 0.2 (≈ 0.243 µM) | 0.05 (≈ 0.0607 µM) | 0.1 (≈ 0.121 µM) | 100 (≈ 121 µM) | 0.39 (≈ 0.473 µM) | > 100 | > 100 | 0.78 (≈ 0.947 µM) | MIC (organism code EE): 0.2 µg/mL (≈ 0.243 µM); MIC (organism code VV): 0.1 µg/mL (≈ 0.121 µM); MIC (organism code WW): 2 µg/mL (≈ 2.43 µM); MIC (organism code XX): 0.015 µg/mL (≈ 0.0182 µM); MIC (organism code YY): 0.015 µg/mL (≈ 0.0182 µM); MIC (organism code ZZ): 0.5 µg/mL (≈ 0.607 µM); MIC (organism code ZZA): 0.25 µg/mL (≈ 0.303 µM)
3 | CCC1OC(=O)C(C)C(=O)C(C)C(OC2OC(C)CC(N(C)C)C2O)C(C)(OCC=Cc2cnc3ccc(C(N)=O)cc3c2)CC(C)C(=O)C(C)C2NC(=O)OC12C (stereo not shown) [Example 217, R is —CH2CH═CH-(6-aminocarbonyl-3-quinolyl)] | 0.2 (≈ 0.247 µM) | 0.39 (≈ 0.482 µM) | > 100 | 0.39 (≈ 0.482 µM) | 0.2 (≈ 0.247 µM) | > 100 | 0.39 (≈ 0.482 µM) | 0.2 (≈ 0.247 µM) | 0.02 (≈ 0.0247 µM) | 0.02 (≈ 0.0247 µM) | 0.02 (≈ 0.0247 µM) | 0.78 (≈ 0.964 µM) | 0.78 (≈ 0.964 µM) | 0.1 (≈ 0.124 µM) | 0.39 (≈ 0.482 µM) | 50 (≈ 61.8 µM) | 0.39 (≈ 0.482 µM) | > 100 | > 100 | 12.5 (≈ 15.5 µM) | MIC (organism code VV): 0.78 µg/mL (≈ 0.964 µM); MIC (organism code WW): 2 µg/mL (≈ 2.47 µM); MIC (organism code XX): 0.03 µg/mL (≈ 0.0371 µM); MIC (organism code YY): 0.03 µg/mL (≈ 0.0371 µM); MIC (organism code ZZ): 2 µg/mL (≈ 2.47 µM); MIC (organism code ZZA): 2 µg/mL (≈ 2.47 µM)
4 | CCC1OC(=O)C(C)C(=O)C(C)C(OC2OC(C)CC(N(C)C)C2O)C(C)(OCC=Cc2cnc3ccc(C#N)cc3c2)CC(C)C(=O)C(C)C2NC(=O)OC12C (stereo not shown) [Example 218, R is —CH2CH═CH-(6-cyano-3-quinolyl)] | 0.1 (≈ 0.126 µM) | 0.1 (≈ 0.126 µM) | > 100 | 0.1 (≈ 0.126 µM) | 0.1 (≈ 0.126 µM) | > 100 | 0.01 (≈ 0.0126 µM) | 0.05 (≈ 0.0632 µM) | 0.01 (≈ 0.0126 µM) | 0.01 (≈ 0.0126 µM) | 0.01 (≈ 0.0126 µM) | 6.2 (≈ 7.84 µM) | 0.2 (≈ 0.253 µM) | 0.05 (≈ 0.0632 µM) | 0.05 (≈ 0.0632 µM) | 50 (≈ 63.2 µM) | 0.39 (≈ 0.493 µM) | > 100 | > 100 | 0.78 (≈ 0.986 µM) | MIC (organism code EE): 0.1 µg/mL (≈ 0.126 µM); MIC (organism code VV): 0.05 µg/mL (≈ 0.0632 µM); MIC (organism code XX): 0.015 µg/mL (≈ 0.019 µM); MIC (organism code YY): 0.015 µg/mL (≈ 0.019 µM); MIC (organism code ZZ): 4 µg/mL (≈ 5.06 µM); MIC (organism code ZZA): 0.25 µg/mL (≈ 0.316 µM)
5 | CC[C@H]1OC(=O)[C@H](C)C(=O)[C@H](C)[C@@H](O[C@@H]2O[C@H](C)C[C@H](N(C)C)[C@H]2O)[C@@](C)(OCC=Cc2ccc3ncc(Br)cc3c2)C[C@@H](C)C(=O)[C@H](C)[C@H]2NC(=O)O[C@@]21C [Example 219, R is —CH2CH═CH-(3-bromo-6-quinolyl)] | 0.2 (≈ 0.237 µM) | 0.2 (≈ 0.237 µM) | 100 (≈ 118 µM) | 0.2 (≈ 0.237 µM) | 0.2 (≈ 0.237 µM) | 100 (≈ 118 µM) | 0.2 (≈ 0.237 µM) | 0.05 (≈ 0.0592 µM) | ≤ 0.005 | 0.02 (≈ 0.0237 µM) | 0.02 (≈ 0.0237 µM) | 3.1 (≈ 3.67 µM) | 0.2 (≈ 0.237 µM) | 0.05 (≈ 0.0592 µM) | 0.2 (≈ 0.237 µM) | 100 (≈ 118 µM) | 0.78 (≈ 0.923 µM) | > 100 | > 100 | 0.39 (≈ 0.462 µM) | MIC (organism code EE): 0.2 µg/mL (≈ 0.237 µM); MIC (organism code VV): 0.05 µg/mL (≈ 0.0592 µM); MIC (organism code WW): 2 µg/mL (≈ 2.37 µM); MIC (organism code XX): 0.03 µg/mL (≈ 0.0355 µM); MIC (organism code YY): 0.03 µg/mL (≈ 0.0355 µM); MIC (organism code ZZ): 2 µg/mL (≈ 2.37 µM); MIC (organism code ZZA): 0.25 µg/mL (≈ 0.296 µM)
